Reference: ChEMBL document CHEMBL4831544, “Discovery of IHMT-EZH2-115 as a Potent and Selective Enhancer of Zeste Homolog 2 (EZH2) Inhibitor for the Treatment of B-Cell Lymphomas” (J Med Chem, 2021)
The source made the active and inactive calls. No cut-off for these calls is given here.

Assays:
[1] = Toxicity in NCG mouse xenografted with human KARPAS-422 cells harboring EZH2 Y641N mutant assessed as effect on body weight at 50 to 200 mg/kg, po BID via gavage measured after 28 days; type: organism-based; settings: in vivo, 672 h, dose 50-200 mg/kg, time 28 day
[2] = AUC (0 to infinity) in rat at 1 mg/kg, iv; type: ADME, organism-based; parameters: route intravenous, time infinity, dose 1 mg/kg; settings: in vivo
[3] = biological target: Histone-lysine N-methyltransferase SETD2 (Homo sapiens) (UniProt Q9BYW2); assay: Inhibition of SETD2 (unknown origin) at 10 uM using SAM as substrate measured up to 960 mins by AlphaScreen microplate reader assay relative to control; settings: time min <=960
[4] = Cmax in mouse at 1 mg/kg, iv measured up to 24 hrs by LC-MS/MS analysis; type: ADME, organism-based; parameters: route intravenous, dose 1 mg/kg, time <=24; settings: in vivo
[5] = AUC (0 to infinity) in rat at 10 mg/kg, po; type: ADME, organism-based; parameters: time infinity, route oral, dose 10 mg/kg; settings: in vivo
[6] = biological target: Histone-lysine N-methyltransferase KMT5B (Homo sapiens) (UniProt Q4FZB7); assay: Inhibition of SUV4-20H1 (unknown origin) at 10 uM using SAM as substrate measured up to 960 mins by AlphaScreen microplate reader assay relative to control; settings: time min <=960
[7] = Apparent volume of distribution in rat at 10 mg/kg, po; type: ADME, organism-based; settings: in vivo
[8] = Clearance in mouse at 10 mg/kg, po measured up to 24 hrs by LC-MS/MS analysis; type: ADME, organism-based; settings: in vivo
[9] = biological target: Protein arginine N-methyltransferase 8 (Homo sapiens) (UniProt Q9NR22); assay: Inhibition of PRMT8 (unknown origin) at 10 uM using SAM as substrate measured up to 960 mins by AlphaScreen microplate reader assay relative to control; settings: time min <=960
[10] = test system: Pfeiffer; assay: Antitumor activity against human Pfeiffer cells harboring EZH2 A677G mutant xenografted in NCG mouse assessed as tumor growth inhibition at 100 mg/kg, po BID via gavage measured after 28 days relative to control; type: functional; settings: 672 h, time 28 day, read-out: TGI
[11] = test system: Histone-lysine N-methyltransferase EZH2 (Homo sapiens), Q15910 [Y641C]; assay: Inhibition of EZH2 Y641C mutant (unknown origin) at 10 uM using SAM as substrate measured up to 960 mins by AlphaScreen microplate reader assay relative to control; settings: time min <=960
[12] = Oral bioavailability in rat at 10 mg/kg; type: ADME, organism-based; settings: in vivo
[13] = test system: KARPAS-422; assay: Antitumor activity against human KARPAS-422 cells harboring EZH2 Y641N mutant xenografted in NCG mouse assessed as tumor growth inhibition at 200 mg/kg, po BID via gavage measured after 28 days relative to control; type: functional; settings: KARPAS-422, po, 672 h, time 28 day, read-out: TGI
[14] = test system: KARPAS-422; assay: Antitumor activity against human KARPAS-422 cells harboring EZH2 Y641N mutant xenografted in NCG mouse assessed as tumor regression at 200 mg/kg, po BID via gavage measured within 10 days; type: functional, organism-based; settings: time day <10
[15] = biological target: Histone-lysine N-methyltransferase SUV39H2 (Homo sapiens) (UniProt Q9H5I1); assay: Inhibition of SUV39H2 (unknown origin) at 10 uM using SAM as substrate measured up to 960 mins by AlphaScreen microplate reader assay relative to control; settings: time min <=960
[16] = biological target: Histone-lysine N-methyltransferase, H3 lysine-36 specific (Homo sapiens) (UniProt Q96L73); assay: Inhibition of NSD1 (unknown origin) at 10 uM using SAM as substrate measured up to 960 mins by AlphaScreen microplate reader assay relative to control; settings: time min <=960
[17] = Cmax in rat at 10 mg/kg, po; type: ADME, organism-based; parameters: route oral, dose 10 mg/kg; settings: in vivo
[18] = Toxicity in NCG mouse xenografted with human Pfeiffer cells harboring EZH2 A677G mutant assessed as effect on body weight at 50 to 200 mg/kg, po BID via gavage measured after 28 days; type: organism-based; settings: in vivo, 672 h, dose 50-200 mg/kg, time 28 day
[19] = test system: Pfeiffer; assay: Antitumor activity against human Pfeiffer cells harboring EZH2 A677G mutant xenografted in NCG mouse assessed as tumor growth inhibition at 200 mg/kg, po BID via gavage measured after 28 days relative to control; type: functional; settings: 672 h, time 28 day, read-out: TGI
[20] = biological target: Histone-lysine N-methyltransferase SETD7 (Homo sapiens) (UniProt Q8WTS6); assay: Inhibition of SET7/9 (unknown origin) at 10 uM using SAM as substrate measured up to 960 mins by AlphaScreen microplate reader assay relative to control; settings: time min <=960
[21] = Oral bioavailability in mouse at 10 mg/kg measured up to 24 hrs by LC-MS/MS analysis; type: ADME, organism-based; settings: in vivo
[22] = biological target: Histone-arginine methyltransferase CARM1 (Homo sapiens) (UniProt Q86X55); assay: Inhibition of PRMT4 (unknown origin) at 10 uM using SAM as substrate measured up to 960 mins by AlphaScreen microplate reader assay relative to control; settings: time min <=960
[23] = biological target: Histone-lysine N-methyltransferase SUV39H1 (Homo sapiens) (UniProt O43463); assay: Inhibition of SUV39H1 (unknown origin) at 10 uM using SAM as substrate measured up to 960 mins by AlphaScreen microplate reader assay relative to control; settings: time min <=960
[24] = biological target: Protein arginine N-methyltransferase 1 (Homo sapiens) (UniProt Q99873); assay: Inhibition of PRMT1 (unknown origin) at 10 uM using SAM as substrate measured up to 960 mins by AlphaScreen microplate reader assay relative to control; settings: time min <=960
[25] = test system: SUD4; assay: Antiproliferative activity against human SU-DHL-4 cells harboring EZH2 Y641S mutant assessed as inhibition of cell growth measured after 6 days by CellTiter-Glo luminescent assay; type: functional; settings: SU-DHL-4, 144 h, time 6 day
[26] = Half life in rat at 10 mg/kg, po; type: ADME, organism-based; settings: in vivo
[27] = test system: Histone-lysine N-methyltransferase EZH2 (Homo sapiens), Q15910 [UNDEFINED MUTATION]; assay: Inhibition of EZH2 A738T mutant (unknown origin) at 10 uM using SAM as substrate measured up to 960 mins by AlphaScreen microplate reader assay relative to control; settings: time min <=960
[28] = biological target: Histone-lysine N-methyltransferase EHMT1 (Homo sapiens) (UniProt Q9H9B1); assay: Inhibition of GLP (unknown origin) at 10 uM using SAM as substrate measured up to 960 mins by AlphaScreen microplate reader assay relative to control; settings: time min <=960
[29] = biological target: Histone-lysine N-methyltransferase EZH2 (Homo sapiens) (UniProt Q15910); assay: Inhibition of EZH2 (unknown origin) at 10 uM using SAM as substrate measured up to 960 mins by AlphaScreen microplate reader assay relative to control; settings: time min <=960
[30] = Clearance in rat at 10 mg/kg, po; type: ADME, organism-based; settings: in vivo
[31] = biological target: Histone-lysine N-methyltransferase EHMT2 (Homo sapiens) (UniProt Q96KQ7); assay: Inhibition of G9A (unknown origin) at 10 uM using SAM as substrate measured up to 960 mins by AlphaScreen microplate reader assay relative to control; settings: time min <=960
[32] = biological target: Histone-lysine N-methyltransferase EZH1 (Homo sapiens) (UniProt Q92800); assay: Inhibition of EZH1 (unknown origin) at 10 uM using SAM as substrate measured up to 960 mins by AlphaScreen microplate reader assay relative to control; settings: time min <=960
[33] = AUC (0 to t) in mouse at 1 mg/kg, iv measured up to 24 hrs by LC-MS/MS analysis; type: ADME, organism-based; parameters: route intravenous, dose 1 mg/kg, time <=24; settings: in vivo

Sequence of Protein arginine N-methyltransferase 8 (Homo sapiens) (Q9NR22 2-394 limits assumed): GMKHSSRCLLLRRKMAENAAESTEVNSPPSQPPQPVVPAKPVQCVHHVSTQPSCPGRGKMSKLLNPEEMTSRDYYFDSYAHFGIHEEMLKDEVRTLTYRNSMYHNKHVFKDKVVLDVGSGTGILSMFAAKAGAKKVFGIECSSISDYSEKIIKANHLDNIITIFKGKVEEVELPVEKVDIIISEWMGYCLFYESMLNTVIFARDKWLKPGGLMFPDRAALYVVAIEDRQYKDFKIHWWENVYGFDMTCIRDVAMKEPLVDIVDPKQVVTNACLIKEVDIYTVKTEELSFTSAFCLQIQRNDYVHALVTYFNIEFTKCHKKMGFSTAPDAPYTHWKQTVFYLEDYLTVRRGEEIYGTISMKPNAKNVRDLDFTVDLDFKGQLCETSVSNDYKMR
Sequence of Histone-arginine methyltransferase CARM1 (Homo sapiens) (Q86X55 whole entry): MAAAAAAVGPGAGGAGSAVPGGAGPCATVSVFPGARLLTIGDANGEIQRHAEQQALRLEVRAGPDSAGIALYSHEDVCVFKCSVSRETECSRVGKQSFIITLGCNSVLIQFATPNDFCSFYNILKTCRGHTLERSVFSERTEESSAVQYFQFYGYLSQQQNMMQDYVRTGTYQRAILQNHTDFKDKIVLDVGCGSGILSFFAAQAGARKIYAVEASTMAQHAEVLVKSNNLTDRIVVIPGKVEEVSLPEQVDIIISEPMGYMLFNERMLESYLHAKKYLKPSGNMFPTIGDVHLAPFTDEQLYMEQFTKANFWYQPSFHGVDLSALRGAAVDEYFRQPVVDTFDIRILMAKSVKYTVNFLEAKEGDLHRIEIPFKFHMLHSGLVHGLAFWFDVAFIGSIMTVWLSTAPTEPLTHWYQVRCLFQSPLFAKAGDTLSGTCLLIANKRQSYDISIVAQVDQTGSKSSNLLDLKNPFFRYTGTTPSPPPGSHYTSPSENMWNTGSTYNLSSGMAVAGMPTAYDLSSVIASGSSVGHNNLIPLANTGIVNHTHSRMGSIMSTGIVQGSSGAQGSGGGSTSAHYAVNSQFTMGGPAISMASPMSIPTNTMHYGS
Sequence of Histone-lysine N-methyltransferase SUV39H1 (Homo sapiens) (O43463 whole entry): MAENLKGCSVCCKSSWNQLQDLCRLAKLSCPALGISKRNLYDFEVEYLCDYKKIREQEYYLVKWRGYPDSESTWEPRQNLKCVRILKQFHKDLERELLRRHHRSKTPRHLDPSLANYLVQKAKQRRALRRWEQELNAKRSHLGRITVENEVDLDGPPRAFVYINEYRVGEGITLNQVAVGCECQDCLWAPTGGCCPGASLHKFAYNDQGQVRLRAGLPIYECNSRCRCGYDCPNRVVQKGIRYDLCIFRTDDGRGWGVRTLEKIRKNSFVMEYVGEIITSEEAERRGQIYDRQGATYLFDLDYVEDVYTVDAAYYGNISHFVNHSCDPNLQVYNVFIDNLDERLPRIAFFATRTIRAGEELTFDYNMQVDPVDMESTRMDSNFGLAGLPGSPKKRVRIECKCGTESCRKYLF
Sequence of Protein arginine N-methyltransferase 1 (Homo sapiens) (Q99873 whole entry, looked up): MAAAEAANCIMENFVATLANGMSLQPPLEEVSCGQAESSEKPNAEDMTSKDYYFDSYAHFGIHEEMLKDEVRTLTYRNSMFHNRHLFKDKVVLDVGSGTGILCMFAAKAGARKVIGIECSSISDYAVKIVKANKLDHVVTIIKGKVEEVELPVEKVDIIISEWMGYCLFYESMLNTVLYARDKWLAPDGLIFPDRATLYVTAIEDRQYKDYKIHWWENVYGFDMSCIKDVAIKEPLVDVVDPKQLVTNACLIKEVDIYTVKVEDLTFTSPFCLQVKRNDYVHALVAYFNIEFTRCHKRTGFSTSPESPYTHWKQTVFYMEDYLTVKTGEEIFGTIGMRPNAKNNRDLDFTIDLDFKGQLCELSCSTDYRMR
Sequence of Histone-lysine N-methyltransferase EHMT2 (Homo sapiens) (Q96KQ7 whole entry): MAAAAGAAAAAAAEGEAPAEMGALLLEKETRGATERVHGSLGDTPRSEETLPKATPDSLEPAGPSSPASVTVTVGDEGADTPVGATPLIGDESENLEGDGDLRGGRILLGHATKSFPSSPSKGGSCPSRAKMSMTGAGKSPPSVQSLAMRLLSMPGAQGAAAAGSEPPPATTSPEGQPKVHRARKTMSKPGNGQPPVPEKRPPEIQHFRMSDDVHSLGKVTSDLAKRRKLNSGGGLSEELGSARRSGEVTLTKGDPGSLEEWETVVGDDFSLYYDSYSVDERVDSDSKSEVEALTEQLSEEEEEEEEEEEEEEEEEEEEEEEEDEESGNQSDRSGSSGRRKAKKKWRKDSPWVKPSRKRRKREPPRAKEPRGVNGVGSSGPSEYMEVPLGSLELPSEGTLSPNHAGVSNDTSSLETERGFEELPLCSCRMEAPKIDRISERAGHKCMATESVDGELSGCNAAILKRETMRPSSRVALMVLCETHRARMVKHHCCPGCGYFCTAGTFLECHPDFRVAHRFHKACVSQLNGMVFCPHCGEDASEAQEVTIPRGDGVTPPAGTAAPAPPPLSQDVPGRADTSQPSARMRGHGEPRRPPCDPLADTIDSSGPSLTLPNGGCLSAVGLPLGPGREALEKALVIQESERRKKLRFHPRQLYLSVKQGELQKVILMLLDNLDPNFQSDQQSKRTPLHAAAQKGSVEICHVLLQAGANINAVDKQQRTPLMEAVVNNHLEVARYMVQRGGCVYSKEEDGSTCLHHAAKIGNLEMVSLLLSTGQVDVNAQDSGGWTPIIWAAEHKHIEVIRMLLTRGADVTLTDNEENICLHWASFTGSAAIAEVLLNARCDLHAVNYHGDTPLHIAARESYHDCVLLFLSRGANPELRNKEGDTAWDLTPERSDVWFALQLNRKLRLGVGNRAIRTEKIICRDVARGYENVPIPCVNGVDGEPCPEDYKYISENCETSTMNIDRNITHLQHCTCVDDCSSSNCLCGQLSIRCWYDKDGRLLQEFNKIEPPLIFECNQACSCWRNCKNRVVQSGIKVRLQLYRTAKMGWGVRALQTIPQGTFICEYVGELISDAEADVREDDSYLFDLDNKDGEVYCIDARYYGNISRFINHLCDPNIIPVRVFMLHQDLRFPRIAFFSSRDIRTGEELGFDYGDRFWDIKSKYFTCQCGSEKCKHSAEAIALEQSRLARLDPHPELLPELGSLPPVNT
Sequence of Histone-lysine N-methyltransferase EZH2 (Homo sapiens), Q15910 [UNDEFINED MUTATION] (Q15910 whole entry, looked up, stated change not applied): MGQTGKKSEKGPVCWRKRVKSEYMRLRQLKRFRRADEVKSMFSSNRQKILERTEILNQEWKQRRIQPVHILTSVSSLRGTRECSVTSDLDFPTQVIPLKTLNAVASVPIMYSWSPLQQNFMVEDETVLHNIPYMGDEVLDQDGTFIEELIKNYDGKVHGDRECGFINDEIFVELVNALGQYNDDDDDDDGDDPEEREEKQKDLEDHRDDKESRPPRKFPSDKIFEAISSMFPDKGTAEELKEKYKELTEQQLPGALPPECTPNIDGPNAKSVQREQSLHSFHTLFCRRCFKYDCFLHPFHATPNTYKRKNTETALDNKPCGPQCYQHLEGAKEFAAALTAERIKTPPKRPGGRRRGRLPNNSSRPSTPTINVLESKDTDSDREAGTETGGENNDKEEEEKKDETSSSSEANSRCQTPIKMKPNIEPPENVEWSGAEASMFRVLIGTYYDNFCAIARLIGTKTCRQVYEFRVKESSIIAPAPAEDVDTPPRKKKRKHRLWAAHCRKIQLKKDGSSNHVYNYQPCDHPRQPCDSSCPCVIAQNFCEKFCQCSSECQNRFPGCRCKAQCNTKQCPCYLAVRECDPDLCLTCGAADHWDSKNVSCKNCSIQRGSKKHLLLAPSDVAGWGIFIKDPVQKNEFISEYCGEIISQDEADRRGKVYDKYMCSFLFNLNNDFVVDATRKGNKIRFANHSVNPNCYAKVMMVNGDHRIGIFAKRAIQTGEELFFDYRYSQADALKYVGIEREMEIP
Sequence of Histone-lysine N-methyltransferase EZH2 (Homo sapiens) (Q15910 whole entry, looked up): as the sequence (Q15910 whole entry, looked up, stated change not applied) above
Sequence of Histone-lysine N-methyltransferase SETD7 (Homo sapiens) (Q8WTS6 whole entry): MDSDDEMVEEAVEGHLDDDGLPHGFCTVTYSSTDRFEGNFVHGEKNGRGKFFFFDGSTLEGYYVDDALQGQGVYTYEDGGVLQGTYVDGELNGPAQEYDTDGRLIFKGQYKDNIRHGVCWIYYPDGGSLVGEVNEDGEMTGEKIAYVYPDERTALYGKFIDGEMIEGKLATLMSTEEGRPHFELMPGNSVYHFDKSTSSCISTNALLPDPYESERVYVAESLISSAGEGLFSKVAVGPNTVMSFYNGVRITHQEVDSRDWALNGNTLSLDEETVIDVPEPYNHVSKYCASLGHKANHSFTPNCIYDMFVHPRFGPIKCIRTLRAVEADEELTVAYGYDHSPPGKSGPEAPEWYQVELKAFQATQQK

AUC(0-inf) [2]: 195 ng·h/mL
inhibition [3]: 0%
Cmax [4]: 1240 ng/mL
AUC(0-inf) [5]: 604 ng·h/mL
inhibition [6]: 0%
Vz [7]: 36559 mL/kg
CL [8]: 165.9 mL/min/kg
inhibition [9]: 0%
inhibition [11]: 95%
bioavailability [12]: 31%
inhibition [15]: 8%
inhibition [16]: 12%
Cmax [17]: 240 ng/mL
inhibition [20]: 3%
bioavailability [21]: 27%
inhibition [22]: 0%
inhibition [23]: 1%
inhibition [24]: 7%
half-life [26]: 87 min
inhibition [27]: 100%
inhibition [28]: 0%
inhibition [29]: 100%
CL/F [30]: 291 mL/min/kg
inhibition [31]: 0%
inhibition [32]: 92%
AUC(0-t) at 24 h [33]: 366 ng·h/mL
SMILES: CCN(C(=O)C1CC1)c1cc(-c2ccc(N3CCN(CC4CC4)CC3)nc2C)cc(C(=O)NCc2c(C)cc(C)[nH]c2=O)c1C
Activity [1]: Non-Toxic
inhibition in vivo at 100 mg/kg [10]: 100%
inhibition in vivo at 200 mg/kg [13]: 97.3%
Activity [14]: Active
Activity [18]: Non-Toxic
inhibition in vivo at 200 mg/kg [19]: 100%
GI50 [25]: 3.87 µM
